{"source": "paper PMC9313812", "about": "“The Pseudo‐Natural Product Rhonin Targets RHOGDI” (Angewandte Chemie (International Ed. in English), 2022)", "key": {"[1]": {"experiment": "Parallel artificial membrane permeability assay (PAMPA)", "assay_type": "in vitro ADME", "settings": "initial 500 µM in donor, 20 h", "experimental": "500 µM final compound concentrations. The kinetic solubility of the compound solutions in HEPES buffer pH 7.4 were then compared to a solution in the organic solvent (ACN) after vigorous shaking on an orbital shaker at room temperature for 90 min. Therefore, the spectrum 250 -500 nm was recorded using the Spectramax plate reader. Precipitated material was removed by filtration prior to analysis. Each sample was tested in triplicate.\nAqueous solubility was also determined using a turbidimetric assay. DMSO stock solutions were diluted in DMSO to produce a range of concentrations. These were then added to PBS buffer pH7.4 (final test compound concentrations: 1 µM, 3 µM, 10 µM, 30 µM, 100 µM, 1% final DMSO concentration, 7 replicates per concentration). After 2 h incubation period at room temperature, the absorbance at 620 nm was read for each concentration and each replicate using a Spectramax plate reader.\nPermeability through artificial membranes assay (PAMPA)\nPermeability through artificial membranes (phospholipid/cholesterol in dodecane) was assessed at an initial compound concentration of 500 µM in the donor compartment. Absorption of the receiver wells was determined by spectrophotometrical measurement using a Spectramax absorbance plate reader after 20 h of incubation. Permeation was calculated by normalization of compound flux across a blank filter. […]"}, "RHOGDI1": {"biological_target": "T1, RHOGDI1 (Homo sapiens, UniProt P52565)", "T1 construct": "GST; made in house; host or cells: E. coli", "T1 sequence (P52565 whole entry)": "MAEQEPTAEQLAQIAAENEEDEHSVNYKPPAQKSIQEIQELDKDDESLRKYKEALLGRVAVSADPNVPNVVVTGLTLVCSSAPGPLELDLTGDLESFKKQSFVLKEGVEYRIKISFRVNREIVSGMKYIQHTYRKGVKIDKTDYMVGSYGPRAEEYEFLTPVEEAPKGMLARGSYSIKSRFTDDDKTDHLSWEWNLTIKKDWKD", "experiment": "Catch-and-release proteomics with lysine-reactive probe STPyne", "assay_type": "binding", "settings": "100 µM compound, 30 µM STPyne, HEK293T lysate", "experimental": "Supplementary Table S11: Extracted list of STPyne PC cleaved RHOGDI peptides identified by catch-and-release proteomics. HEK293T lysate overexpressing RHOGDI-F was treated with 100 µM Rhonin or DMSO, followed by 30 µM STPyne. Asterisks indicate […]\n(also on this page, place not known: S 11: catch -and-release RHOGDI -F DMS O, Modified lysine position Average ratio intensity STPyne-Rhonin-100 µM/DMSO SD ratio intensity STPyne-Rhonin-100 µM/DMSO 15) […]\n(1 picture or pasted object on this page, not shown here)\nSamples were acidified to a final concentration of 5% acetic acid, desalted over a self-packed C18 spin column, and dried. Peptides were resuspended in water with 0.1 % formic acid (FA) and analyzed using EASY-nLC 1200 nano-UHPLC coupled to Q Exactive HF-X Quadrupole-Orbitrap mass spectrometer (Thermo Scientific). The chromatography column consisted of a 45 cm long, 75 μm i.d. microcapillary capped by a 5 μm tip and packed with ReproSil -Pur 120 C18-AQ 2.4 μm beads (Dr. Maisch GmbH). LC solvents were 0.1 % FA in water (Buffer A) and 0.1 % FA in 90 % MeCN: 10 % water (Buffer B). […] The MS data was analyzed with MaxQuant[11] and searched against the human proteome (Uniprot), a common list of contaminants (included in MaxQuant) and the amino acid sequence of recombinant RHOGDI. […]"}}}
{"compound": "COC(=O)C1(C(CC(=O)c2cccnc2)c2ccccc2)N=C(c2ccc(Br)cc2)C2C(=O)N(C)C(=O)C21", "note": "(centres unmarked) [7l]", "values": [{"measurement": "permeability, flux in PAMPA", "setting": "[1]", "value": 41.1, "unit": "%"}, {"measurement": "STPyne labeling of RHOGDI1 lysines in presence of compound (in words)", "setting": "RHOGDI1", "value": "lysines 186 and 199 in RHOGDI1 were less efficiently labeled"}]}
